Tested on: 845751-090-R-J2-PDC tumor spheroid viability
Experiment: Anticancer human tumor 845751-090-R-J2-PDC patient-derived head and neck squamous carcinoma cell line growth inhibition [IpAb]
Conditions: spheroids with HUVEC and MSC; for IC50: curve of first compound; for viability, T/C: stronger effect = lower value
Outline: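 Combinations with ipatasertib or abemaciclib were tested on tumour spheroids holding HUVEC (25%) and MSC (15%) alongside 60% malignant cells. Top concentration was at or near clinical Cmax (10 microM if undefined), descending in half-log steps.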

[1] = second compound 0.01 µM, first compound 0.00949 µM
[2] = second compound 0.01 µM, first compound 0.03 µM
[3] = second compound 0.01 µM, first compound 0.0949 µM
[4] = second compound 0.01 µM, first compound 0.3 µM
[5] = second compound 0.0316 µM, first compound 0.00949 µM
[6] = second compound 0.0316 µM, first compound 0.03 µM
[7] = second compound 0.0316 µM, first compound 0.0949 µM
[8] = second compound 0.0316 µM, first compound 0.3 µM
[9] = second compound 0.1 µM, first compound 0.00949 µM
[10] = second compound 0.1 µM, first compound 0.03 µM
[11] = second compound 0.1 µM, first compound 0.0949 µM
[12] = second compound 0.1 µM, first compound 0.3 µM
[13] = second compound 0.316 µM, first compound 0.00949 µM
[14] = second compound 0.316 µM, first compound 0.03 µM
[15] = second compound 0.316 µM, first compound 0.0949 µM
[16] = second compound 0.316 µM, first compound 0.3 µM
[17] = second compound 1 µM, first compound 0.00949 µM
[18] = second compound 1 µM, first compound 0.03 µM
[19] = second compound 1 µM, first compound 0.0949 µM
[20] = second compound 1 µM, first compound 0.3 µM
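Further: spheroids exposed to compounds for 7 days before readout.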
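Wherever viability, T/C is given: CTG3D luminescence normalised so that 100% = DMSO vehicle control.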

CC(=O)c1c(C)c2cnc(Nc3ccc(N4CCNCC4)cn3)nc2n(C2CCCC2)c1=O + CCN1CCN(Cc2ccc(Nc3ncc(F)c(-c4cc(F)c5nc(C)n(C(C)C)c5c4)n3)nc2)CC1
IC50 (second compound 0.01 µM): > 300 nM
IC50 (second compound 0.0316 µM): > 300 nM
IC50 (second compound 0.1 µM): > 300 nM
IC50 (second compound 0.316 µM): > 300 nM
IC50 (second compound 1 µM): > 300 nM
viability, T/C (second compound 0.01 µM, first compound 0.000949 µM): 115%
viability, T/C (second compound 0.01 µM, first compound 0.003 µM): 93.8%
viability, T/C [1]: 84.8%
viability, T/C [2]: 91%
viability, T/C [3]: 93.4%
viability, T/C [4]: 76.7%
viability, T/C (second compound 0.0316 µM, first compound 0.000949 µM): 77.2%
viability, T/C (second compound 0.0316 µM, first compound 0.003 µM): 62.8%
viability, T/C [5]: 63.6%
viability, T/C [6]: 73.9%
viability, T/C [7]: 65.5%
viability, T/C [8]: 59.2%
viability, T/C (second compound 0.1 µM, first compound 0.000949 µM): 49.8%
viability, T/C (second compound 0.1 µM, first compound 0.003 µM): 71.8%
viability, T/C [9]: 75.4%
viability, T/C [10]: 71.2%
viability, T/C [11]: 75.9%
viability, T/C [12]: 65.8%
viability, T/C (second compound 0.316 µM, first compound 0.000949 µM): 53.1%
viability, T/C (second compound 0.316 µM, first compound 0.003 µM): 69.7%
viability, T/C [13]: 88%
viability, T/C [14]: 81.7%
viability, T/C [15]: 61%
viability, T/C [16]: 50.6%
viability, T/C (second compound 1 µM, first compound 0.000949 µM): 90.4%
viability, T/C (second compound 1 µM, first compound 0.003 µM): 86.4%
viability, T/C [17]: 99.5%
viability, T/C [18]: 77.7%
viability, T/C [19]: 70.9%
viability, T/C [20]: 53.6%

CC(C)(C)c1cnc(CSc2cnc(NC(=O)C3CCNCC3)s2)o1 + CCN1CCN(Cc2ccc(Nc3ncc(F)c(-c4cc(F)c5nc(C)n(C(C)C)c5c4)n3)nc2)CC1
IC50 (second compound 0.01 µM): 97.3 nM
IC50 (second compound 0.0316 µM): 71.4 nM
IC50 (second compound 0.1 µM): 51.2 nM
IC50 (second compound 0.316 µM): 36.5 nM
IC50 (second compound 1 µM): 38.4 nM
viability, T/C [1]: 112%
viability, T/C [2]: 91.9%
viability, T/C [3]: 55%
viability, T/C [4]: 1.28%
viability, T/C (second compound 0.01 µM, first compound 0.949 µM): 1.21%
viability, T/C (second compound 0.01 µM, first compound 3 µM): 1.79%
viability, T/C [5]: 92.8%
viability, T/C [6]: 102%
viability, T/C [7]: 34.5%
viability, T/C [8]: 1.59%
viability, T/C (second compound 0.0316 µM, first compound 0.949 µM): 0.68%
viability, T/C (second compound 0.0316 µM, first compound 3 µM): 0.88%
viability, T/C [9]: 90.5%
viability, T/C [10]: 69.6%
viability, T/C [11]: 27.7%
viability, T/C [12]: 1.77%
viability, T/C (second compound 0.1 µM, first compound 0.949 µM): 0.43%
viability, T/C (second compound 0.1 µM, first compound 3 µM): 0.69%
viability, T/C [13]: 76%
viability, T/C [14]: 57.9%
viability, T/C [15]: 11.5%
viability, T/C [16]: 0.79%
viability, T/C (second compound 0.316 µM, first compound 0.949 µM): 0.67%
viability, T/C (second compound 0.316 µM, first compound 3 µM): 0.6%
viability, T/C [17]: 62%
viability, T/C [18]: 63.1%
viability, T/C [19]: 3.89%
viability, T/C [20]: 2.43%
viability, T/C (second compound 1 µM, first compound 0.949 µM): 1.4%
viability, T/C (second compound 1 µM, first compound 3 µM): 0.76%

Cn1nccc1Nc1nccc(-c2ccn(C(CO)c3ccc(Cl)c(F)c3)c(=O)c2)n1 (stereo not given) + CCN1CCN(Cc2ccc(Nc3ncc(F)c(-c4cc(F)c5nc(C)n(C(C)C)c5c4)n3)nc2)CC1
IC50 (second compound 0.01 µM): > 10000 nM
IC50 (second compound 0.0316 µM): > 10000 nM
IC50 (second compound 0.1 µM): > 10000 nM
IC50 (second compound 0.316 µM): > 10000 nM
IC50 (second compound 1 µM): > 10000 nM
viability, T/C (second compound 0.01 µM, first compound 0.0316 µM): 185%
viability, T/C (second compound 0.01 µM, first compound 0.1 µM): 202%
viability, T/C (second compound 0.01 µM, first compound 0.316 µM): 192%
viability, T/C (second compound 0.01 µM, first compound 1 µM): 227%
viability, T/C (second compound 0.01 µM, first compound 3.16 µM): 198%
viability, T/C (second compound 0.01 µM, first compound 10 µM): 135%
viability, T/C (second compound 0.0316 µM, first compound 0.0316 µM): 143%
viability, T/C (second compound 0.0316 µM, first compound 0.1 µM): 191%
viability, T/C (second compound 0.0316 µM, first compound 0.316 µM): 216%
viability, T/C (second compound 0.0316 µM, first compound 1 µM): 211%
viability, T/C (second compound 0.0316 µM, first compound 3.16 µM): 169%
viability, T/C (second compound 0.0316 µM, first compound 10 µM): 133%
viability, T/C (second compound 0.1 µM, first compound 0.0316 µM): 154%
viability, T/C (second compound 0.1 µM, first compound 0.1 µM): 190%
viability, T/C (second compound 0.1 µM, first compound 0.316 µM): 181%
viability, T/C (second compound 0.1 µM, first compound 1 µM): 204%
viability, T/C (second compound 0.1 µM, first compound 3.16 µM): 185%
viability, T/C (second compound 0.1 µM, first compound 10 µM): 132%
viability, T/C (second compound 0.316 µM, first compound 0.0316 µM): 156%
viability, T/C (second compound 0.316 µM, first compound 0.1 µM): 178%
viability, T/C (second compound 0.316 µM, first compound 0.316 µM): 210%
viability, T/C (second compound 0.316 µM, first compound 1 µM): 204%
viability, T/C (second compound 0.316 µM, first compound 3.16 µM): 174%
viability, T/C (second compound 0.316 µM, first compound 10 µM): 106%
viability, T/C (second compound 1 µM, first compound 0.0316 µM): 161%
viability, T/C (second compound 1 µM, first compound 0.1 µM): 211%
viability, T/C (second compound 1 µM, first compound 0.316 µM): 224%
viability, T/C (second compound 1 µM, first compound 1 µM): 215%
viability, T/C (second compound 1 µM, first compound 3.16 µM): 171%
viability, T/C (second compound 1 µM, first compound 10 µM): 86.3%

Source: PubChem BioAssay AID2060333 (Molecular Pharmacology Branch, DTP, NCI, 2025)
